{"source": "patent US8940863B2", "about": "“Selective anticancer chimeric peptides which bind neuropilin receptor” (Stella Pharma Corporation, priority 2008, dated 2015)", "key": {"COLO587": {"system": "COLO587", "assay": "Cell viability assay (WST-8)", "format": "cell-based", "description": "(§1) Correlation between IC50 values was observed."}, "[1]": {"system": "PE cell (pancreatic epidermal)", "assay": "Cell viability assay (WST-8)", "format": "cell-based", "conditions": "72 h", "description": "as §1"}, "SN-19": {"system": "SN-19", "assay": "Cell viability assay (WST-8)", "format": "cell-based", "description": "as §1"}, "[2]": {"system": "HC cell (hepatocyte cell)", "assay": "Cell viability assay (WST-8)", "format": "cell-based, human", "conditions": "72 h", "description": "as §1"}, "T47D [3]": {"system": "T47D", "assay": "Cell viability assay (WST-8)", "format": "cell-based, human", "conditions": "for IC50: 72 h", "description": "as §1"}, "T47D [4]": {"system": "T47D", "assay": "Annexin V and caspase 3,7 flow cytometry", "format": "cell-based, human", "conditions": "10 μM, two hours", "procedure": "T47D and PE cells were incubated with TfR-lytic chimeric peptide (10 μM) and lytic peptide (10 μM) for two hours. Annexin V (FIG. 26A) and caspase 3,7 activity (FIG. 26B) were detected in the green channel, and propidium iodide staining was detected in the red channel, and flow cytometry analysis was performed. In T47D cells treated with TfR-lytic chimeric peptide, the ratio of the right half panel showing Annexin V-positive cells and caspase 3,7-activated cells increased."}, "PE cells (normal cells)": {"system": "PE cells (normal cells)", "assay": "Annexin V and caspase 3,7 flow cytometry", "format": "cell-based", "conditions": "10 μM, two hours"}, "T47D breast cancer cells": {"system": "T47D breast cancer cells", "assay": "Membrane permeabilization (calcein)", "format": "cell-based, human", "conditions": "10 μM, 0 to 15 minutes", "procedure": "Furthermore, after addition of TfR-lytic chimeric peptide at concentration of 10 μM, the cells in calcein solution were observed after 0 minute, five minutes, 10 minutes and 15 minutes."}, "T47D [5]": {"system": "T47D", "assay": "Short-exposure killing of cancer cells (WST-8)", "format": "cell-based, human", "conditions": "1 to 180 minutes exposure", "procedure": "The cells were further cultured for 72 hours."}, "LNCaP": {"system": "LNCaP", "conditions": "for IC50: 72 h"}, "MRC-5": {"system": "MRC-5", "conditions": "72 h"}, "BxPC-3": {"system": "BxPC-3", "conditions": "72 h"}, "HEK293": {"system": "HEK293", "conditions": "72 h"}, "OE19": {"system": "OE19", "conditions": "72 h"}, "U937": {"system": "U937", "conditions": "72 h"}}, "note": "Non-standard residues stand in square brackets, D forms with d. Residues, ends and D or L forms follow the SMILES beside them.", "data": [{"compound": "CSCC[C@H](NC(=O)[C@@H]1CCCN1C(=O)[C@@H]1CCCN1C(=O)[C@H](CCCNC(=N)N)NC(=O)[C@H](Cc1c[nH]cn1)NC(=O)[C@@H](N)[C@@H](C)O)C(=O)N[C@@H](Cc1c[nH]c2ccccc12)C(=O)N[C@@H](CO)C(=O)N1CCC[C@H]1C(=O)N[C@H](C(=O)N[C@@H](Cc1c[nH]c2ccccc12)C(=O)N1CCC[C@H]1C(=O)NCC(=O)NCC(=O)NCC(=O)N[C@@H](CCCCN)C(=O)N[C@@H](CC(C)C)C(=O)N[C@H](CC(C)C)C(=O)N[C@@H](CC(C)C)C(=O)N[C@@H](CCCCN)C(=O)N[C@H](CC(C)C)C(=O)N[C@@H](CC(C)C)C(=O)N[C@H](CCCCN)C(=O)N[C@H](CCCCN)C(=O)N[C@@H](CC(C)C)C(=O)N[C@@H](CC(C)C)C(=O)N[C@@H](CCCCN)C(=O)N[C@H](CC(C)C)C(=O)N[C@@H](CC(C)C)C(=O)N[C@@H](CCCCN)C(=O)N[C@@H](CCCCN)C(=O)N[C@@H](CCCCN)C(=O)O)C(C)C", "note": "[TfR-lytic peptide] (H-THRPPMWSPVWPGGGKL[dL]LK[dL]L[dK][dK]LLK[dL]LKKK-OH; N-terminus and C-terminus assumed)", "values": [{"measurement": "IC50", "setting": "COLO587; 72 h", "result": 6.9, "unit": "µM"}, {"measurement": "IC50 ratio Lytic/TfR-lytic", "setting": "COLO587; COLO587", "result": 2.0}, {"measurement": "IC50", "setting": "[1]", "result": "> 20", "unit": "µM"}, {"measurement": "IC50", "setting": "SN-19; 72 h", "result": 8.2, "unit": "µM"}, {"measurement": "IC50 ratio Lytic/TfR-lytic", "setting": "SN-19; SN-19", "result": 3.1}, {"measurement": "IC50", "setting": "[2]", "result": "> 20", "unit": "µM"}, {"measurement": "IC50", "setting": "T47D [3]", "result": 4.8, "unit": "µM"}, {"measurement": "IC50 ratio Lytic/TfR-lytic", "setting": "T47D [3]; T47D", "result": 3.8}, {"measurement": "ratio of Annexin V-positive cells and caspase 3,7-activated cells", "setting": "T47D [4]", "result": "increased"}, {"measurement": "percentage of Annexin V-positive cells and caspase 3,7-activated cells", "setting": "PE cells (normal cells)", "result": "did not increase"}, {"measurement": "membrane permeation", "setting": "T47D breast cancer cells", "result": "permeated the membrane was observed"}, {"measurement": "rapid killing of cancer cells", "setting": "T47D [5]", "result": "rapidly kill T47D cancer cells"}, {"measurement": "IC50", "setting": "U251; 72 h", "result": 6.8, "unit": "µM"}, {"measurement": "IC50 ratio Lytic/TfR-lytic", "setting": "U251; U251", "result": 2.8}, {"measurement": "IC50", "setting": "LNCaP", "result": 6.2, "unit": "µM"}, {"measurement": "IC50 ratio Lytic/TfR-lytic", "setting": "LNCaP; LNCaP", "result": 2.7}, {"measurement": "IC50", "setting": "MRC-5", "result": "> 20", "unit": "µM"}, {"measurement": "IC50", "setting": "MDA-MB-231; 72 h", "result": 6.7, "unit": "µM"}, {"measurement": "IC50 ratio Lytic/TfR-lytic", "setting": "MDA-MB-231; MDA-MB-231", "result": 4.4}, {"measurement": "IC50", "setting": "SK-BR-3; 72 h", "result": 5.3, "unit": "µM"}, {"measurement": "IC50 ratio Lytic/TfR-lytic", "setting": "SK-BR-3; SK-BR-3", "result": 5.0}]}, {"compound": "CC(C)C[C@H](NC(=O)[C@H](CC(C)C)NC(=O)[C@@H](CCCCN)NC(=O)[C@@H](CCCCN)NC(=O)[C@H](CC(C)C)NC(=O)[C@@H](CC(C)C)NC(=O)[C@H](CCCCN)NC(=O)[C@H](CC(C)C)NC(=O)[C@@H](CC(C)C)NC(=O)[C@H](CC(C)C)NC(=O)[C@H](CCCCN)NC(=O)CNC(=O)CNC(=O)CNC(=O)[C@H](CCCNC(=N)N)NC(=O)[C@@H]1CCCN1C(=O)[C@@H]1CCCN1C(=O)[C@H](CC(C)C)NC(=O)[C@H](Cc1c[nH]c2ccccc12)NC(=O)[C@@H](NC(=O)[C@H](C)N)[C@@H](C)O)C(=O)N[C@@H](CCCCN)C(=O)N[C@H](CC(C)C)C(=O)N[C@@H](CC(C)C)C(=O)N[C@@H](CCCCN)C(=O)N[C@@H](CCCCN)C(=O)N[C@@H](CCCCN)C(=O)O", "note": "[VEGFR2-Lytic] (H-ATWLPPRGGGKL[dL]LK[dL]L[dK][dK]LLK[dL]LKKK-OH; N-terminus and C-terminus assumed)", "values": [{"measurement": "IC50", "setting": "T47D [3]", "result": 6.4, "unit": "µM"}, {"measurement": "IC50", "setting": "BxPC-3", "result": 12.2, "unit": "µM"}, {"measurement": "IC50", "setting": "LNCaP", "result": 8.9, "unit": "µM"}, {"measurement": "IC50", "setting": "MRC-5", "result": "> 20", "unit": "µM"}, {"measurement": "IC50", "setting": "HEK293", "result": "> 20", "unit": "µM"}, {"measurement": "IC50", "setting": "OE19", "result": 7.1, "unit": "µM"}, {"measurement": "IC50", "setting": "U937", "result": 3.5, "unit": "µM"}]}]}
